{
  "source": "patent US20220039395A1",
  "about": "“INSECT CONTROL AGENTS” (priority 2018, published 2022)",
  "test_system": "Aphids",
  "experiment": "Feeding with peptides in artificial diet, mortality without other stress",
  "format": "in vivo, Myzus persicae",
  "conditions": "ingestion via artificial diet",
  "procedure": "A standard artificial diet for M. persicae was produced as described in Van Emden (2009) and provided the basal diet to which neuropeptide analogues were added for screening purposes. Neuropeptide analogues were diluted individually in the artificial diet to a pre-determined recommended concentration as follows: 1895 (3.5×10^−5 M) and 2019 (2.0×10^−5 M).\nFeeding apparatus were constructed using a set-up developed by Sadeghi et al (2009). For this, a piece of Parafilm was stretched over a Plexiglas ring (h=4 cm, Ø=3 cm) and 100 μl of the artificial diet containing the desired neuropeptide analogue was pipette onto the Parafilm membrane. A second piece of Parafilm, stretched to 4 times the original thickness, was stretched over the original layer, sandwiching the artificial diet between two layers of Parafilm. A strip of Parafilm was wrapped around the circumference of the Plexiglas ring, sealing in the diet. A plastic ring (h=1.2 cm, Ø=3.4 cm) was subsequently placed over the Parafilm layer, creating a walled chamber in which to house test aphids in contact with the Parafilm layer containing the artificial diet. Finally, a small Petri dish (h=1 cm, Ø=3.6 cm), modified for ventilation with net cloth, was placed on top of each feeding apparatus to prevent aphid escape.\nTo obtain aphids for use in experiments, reproducing anholocyclic adults were placed on individual excised leaves of Chinese cabbage at densities of 5 adults per leaf and allowed to reproduce for 24 h. The stem of each excised leaf was held within a 0.5 mL Eppendorf tube containing water via a punctured hole in the Eppendorf lid, and placed individually within a microcage (L=4 cm, Ø=9.5 cm). Following 24 h, adults were removed and resultant first instar nymphs (<1 day old and synchronised in age to within 24 h) retained. Nymphs were allowed to develop on the Chinese cabbage for 5 days. On day 5, (3rd instar) nymphs were transferred onto the artificial diet containing a neuropeptide analogue at densities of 1 per feeding chamber and monitored daily until death. Aphids were transferred to fresh artificial diet (containing neuropeptide analogue) every 5 days. Life history traits recorded include age at first reproduction, number of nymphs produced per 24 h period, and lifespan. From these parameters, lifetime fecundity and daily fecundity were calculated. Control groups were set up involving aphids reared on the host plant, an artificial diet without a neuropeptide analogue, and an artificial diet containing the native CAPA neuropeptide.\nAphids were reared on artificial diet, alone or supplemented with peptide 2129, 2315, 2316 or 2320. A control group (no test peptide) was reared on a host plant. No other stress conditions were applied.\nFor peptides 2315, 2316 and 2320, mortality was assessed at 48, 72, 96, 120 and 144 hours. A group of 9 or 10 insects was used for each time point, and all experiments were performed at least 4 times.",
  "note": "Numbered stars: 1 amine (or outer) side, 2 acyl side, 3 side chain; on linkers, the order of the positions; unused ones are H or OH. Peptide text beside a SMILES is read from it. * marks the point of attachment. X1 = Brc1ccc2c(c1)-c1cc(N*)ccc1C2; Suc = O=C(CCC(=O)[*:2])[*:1]",
  "data": [
    {"compound": "CC[C@H](C)[C@H](NC(=O)[C@H](CCCNC(=N)N)NC(=O)[C@@H]1CCCN1C(=O)[C@@H](NC(=O)[C@H](C)NC(=O)CCC(=O)Nc1ccc2c(c1)-c1cc(Br)ccc1C2)[C@@H](C)O)C(N)=O", "note": "[compound 2129, 2Abf-Suc-ATPRI-NH2] ({X1-Suc}-ATPRI-NH2)", "values": [
      {"measurement": "change in mortality relative to the control", "setting": "after 24 h", "value": 19.7, "unit": "%"},
      {"measurement": "percentage survival", "setting": "after 24 h", "value": 73.8, "unit": "%"},
      {"measurement": "effect on aphid longevity", "setting": "after the first 24 h", "value": "highly significant reduction in aphid longevity"}
    ]}
  ]
}
